Results taken from publication PMC4682037, “Signal transduction in light–oxygen–voltage receptors lacking the adduct-forming cysteine residue” (Nature Communications, 2015).

Key:
[1] = target: T1, VVD-III (VVD Δ36, C108A:M135I:M165I) (Neurospora crassa, UniProt Q9C3Y6, C108A/M135I/M165I/Q182L); experiment: photoreduction, SEC; assay type: binding; conditions: flavin bound on purification; 448-nm laser 30 mW, 50 mM Hepes pH 8, 150 mM NaCl
T1 construct: lacks the first 36 residues, C108A/M135I/M165I, pET28a, Ni:NTA purified from E. coli BL21(DE3)
T1 sequence (Q9C3Y6 entry or part of it C108A/M135I/M165I/Q182L): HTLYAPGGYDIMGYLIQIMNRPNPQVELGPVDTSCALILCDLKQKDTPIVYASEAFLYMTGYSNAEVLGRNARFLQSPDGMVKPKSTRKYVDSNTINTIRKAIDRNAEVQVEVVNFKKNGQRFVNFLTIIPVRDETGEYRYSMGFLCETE

[2] = target: T2, BAT-LOV* (Halorubrum hochstenium, UniProt M0FIW0, P188C); experiment: photoreduction by absorption spectroscopy; assay type: binding; conditions: 448-nm laser; flavin presumably FAD as for the wild type
T2 construct: gene C467_03291; isolated LOV* domain, residues 141-275, synthetic gene, N-terminal His6 tag (pET28a), E. coli BL21(DE3), endogenous flavin removed by Q XL, monomer; full-length protein also has receiver, GAF and HTH modules
T2 sequence (M0FIW0 entry or part of it P188C): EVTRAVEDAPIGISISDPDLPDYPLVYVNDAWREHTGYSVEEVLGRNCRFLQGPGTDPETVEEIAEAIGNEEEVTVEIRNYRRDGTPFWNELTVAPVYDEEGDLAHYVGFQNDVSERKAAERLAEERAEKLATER

[3] = target: T3, BAT-LOV* (Halorubrum hochstenium, UniProt M0FIW0, Y163F/W172F/Y247F); experiment: FAD reconstitution, photoreduction by absorption spectroscopy, SEC; assay type: binding; conditions: BAT-III; 448-nm laser
T3 construct: gene C467_03291; isolated LOV* domain, residues 141-275, synthetic gene, N-terminal His6 tag (pET28a), E. coli BL21(DE3), endogenous flavin removed by Q XL, monomer; full-length protein also has receiver, GAF and HTH modules
T3 sequence (M0FIW0 entry or part of it Y163F/W172F/Y247F): as the sequence (M0FIW0 entry or part of it P188C) above, with Y23F, W32F, C48P, Y107F counted along it

[4] = target: T4, BAT-LOV* (Halorubrum hochstenium, UniProt M0FIW0); experiment: reconstitution with excess flavin, absorption spectroscopy, SEC; assay type: binding; conditions: incubated at least 12 h in 0.5 M NaCl, unbound flavin removed by 10 kDa filter
T4 construct: gene C467_03291; isolated LOV* domain, residues 141-275, synthetic gene, N-terminal His6 tag (pET28a), E. coli BL21(DE3), endogenous flavin removed by Q XL, monomer; full-length protein also has receiver, GAF and HTH modules
T4 sequence (M0FIW0 entry or part of it): as the sequence (M0FIW0 entry or part of it P188C) above, with C48P counted along it

[5] = target: T5, VVD-III (VVD Δ36, C108A:M135I:M165I) (Neurospora crassa, UniProt Q9C3Y6, Y40E/C108A/M135I/M165I); experiment: photoreduction, SEC; assay type: binding; conditions: flavin bound on purification; 448-nm laser 30 mW, 50 mM Hepes pH 8, 150 mM NaCl
T5 construct: lacks the first 36 residues, C108A/M135I/M165I, pET28a, Ni:NTA purified from E. coli BL21(DE3)
T5 sequence (Q9C3Y6 entry or part of it Y40E/C108A/M135I/M165I): as the sequence (Q9C3Y6 entry or part of it C108A/M135I/M165I/Q182L) above, with Y4E, L146Q counted along it

[6] = target: T4, BAT-LOV*; experiment: reconstitution with excess flavin, absorption spectroscopy; assay type: binding; conditions: incubated at least 12 h in 0.5 M NaCl, unbound flavin removed by 10 kDa filter
[7] = target: the molecule itself; experiment: SEC; VVD-III as purified from E. coli passed through a SEC column; flavin redox states separate; blue-coloured, NSQ-containing protein

## Cc1cc2nc3c(=O)[nH]c(=O)nc-3n(C[C@H](O)[C@H](O)[C@H](O)COP(=O)(O)OP(=O)(O)OC[C@H]3O[C@@H](n4cnc5c(N)ncnc54)[C@H](O)[C@@H]3O)c2cc1C [FAD]
[1]
  photoreduction, SEC: Substituting the conserved Gln182 that interacts with flavin N5 to Leu
[2]
  photoreduction by absorption spectroscopy: BAT P188C photoreduces to the HQ with little NSQ intermediate
[3]
  FAD reconstitution, photoreduction by absorption spectroscopy, SEC: recombinantly expressed, FAD-reconstituted (a) BAT-LOV* and (b) BAT-III (Y163F:W172F:Y247F)
[4]; flavin-free protein elutes in extended conformation
  reconstitution with excess flavin, absorption spectroscopy, SEC: could be reconstituted with either FAD, FMN or riboflavin after incubation with excess cofactor
[5]
  photoreduction, SEC: both the light-adapted NSQ and dark-adapted oxidized quinone states elute from SEC as monomers

## Cc1cc2nc3c(=O)[nH]c(=O)nc-3n(C[C@H](O)[C@H](O)[C@H](O)COP(=O)(O)O)c2cc1C [FMN]
[4]
  reconstitution with excess flavin, absorption spectroscopy, SEC: could be reconstituted with either FAD, FMN or riboflavin after incubation with excess cofactor

## Cc1cc2nc3c(=O)[nH]c(=O)nc-3n(C[C@H](O)[C@H](O)[C@H](O)CO)c2cc1C [riboflavin]
[6]
  reconstitution with excess flavin, absorption spectroscopy: could be reconstituted with either FAD, FMN or riboflavin after incubation with excess cofactor

B1: VVD-III (VVD Δ36, C108A:M135I:M165I) (domain or fragment, Neurospora, UniProt Q9C3Y6 37-186, looked up)
chain: HTLYAPGGYDIMGYLIQIMNRPNPQVELGPVDTSCALILCDLKQKDTPIVYASEAFLYMTGYSNAEVLGRNARFLQSPDGMVKPKSTRKYVDSNTINTIRKAIDRNAEVQVEVVNFKKNGQRFVNFLTIIPVRDETGEYRYSMGFQCETE
notes: Vivid (VVD), LOV photoreceptor of Neurospora; lacks the first 36 N-terminal residues; C108A, M135I, M165I; Dark-adapted: oxidized quinone; light-adapted: neutral semiquinone (NSQ); also called Vivid; source: E. coli BL21(DE3), purified (Ni:NTA, SEC)
[7]
  stoichiometry N: 2
